Patent US20110159095A1, “TREATMENT OF ADRENAL INSUFFICIENCY” (priority 2008, published 2011)

System: HPA axis
Assay: Plasma ACTH in dexamethasone-suppressed healthy subjects
Format: in vivo, human
Settings: 1 mg oral dexamethasone repeated; confirms suppression of HPA axis
Description: Plasma ACTH levels were taken at 2155 h on Day 1 and on 0600 h on Day 2 whilst serum cortisol levels were taken prior to ingestion of the drug and were repeated every 30 minutes for the first four hours, then at 0200 h, 0300 h, 0400 h, 0500 h, 0600 h, 0800 h, 1000 h, 1300 h, 1600 h, 2200 h.
Assays: Serum cortisol was measured using the Bayer Advia Centaur Automated Immunoassay System. The inter-assay coefficient variation was 7% at 200 nmol/l (7.2 μg/dl), and 8% at 1,050 nmol/l (38 μg/dl). Plasma ACTH was measured using the DPC Immulite 2000 assay. Plasma 17OH-progesterone was measured using Liquid Chromatography Tandem Mass Spectrometry at Quest Diagnostics (Nichols Institute, San Juan Capistrano, Calif., USA) with an inter-assay coefficient of variation of 8.2%.

C[C@@H]1C[C@H]2[C@@H]3CCC4=CC(=O)C=C[C@]4(C)[C@@]3(F)[C@@H](O)C[C@]2(C)[C@@]1(O)C(=O)CO [dexamethasone]
ACTH values below the assay lower limit: 98%
